According to patent US11236106B2, “Cycloalkane-1,3-diamine derivative” (Daiichi Sankyo Company, Limited, priority 2018, dated 2022):
pIC50: −log10 of the molar value. Structures can show the parent of a compound that is named as a salt. Where two headings read alike, the source gives them in different places. Blank lines part the entries; values can stand above or below the compound they belong to.

What was measured:
[1] = tested on: MV-4-11 cells; assay: Antitumor activity in MV-4-11 cell subcutaneous transplant model (Experimental Example 3-4); format: in vivo, mice; settings: Exp. Ex. 3-4, oral, 32 days after transplantation
Description: (§1) MV-4-11 cells were purchased from ATCC. The female FOX CHASE SCID C.B.17/Icr-scid/scidJcl mice were purchased from Claire Japan. […] The compound was administered as a suspension in 0.5% MC. For the compound-free group, 0.5% MC was administered as a solvent. The estimated individual tumor volume was measured from the day of the grouping to 32 days after the transplantation (test end date).
(§2) Tumor growth inhibitory rate %=(1−TVCt/TVCc)×100 TVC=(Individual tumor volume on the test end date)−(Individual tumor volume on the grouping date) TVCt: TVC mean value of the compound administration group TVCc: TVC mean value of the compound-free group

[2] = target: T1, menin and MLL (menin, Flag tagged; biotinylated MLL1 peptide 1-46aa) (Homo sapiens, UniProt O00255); assay: biochemical; settings: AlphaLISA, 1 nM menin, 10 nM biotinylated MLL1 peptide; for pIC50: IC50, binding inhibitory activity between menin and MLL
T1 sequence (O00255 1-610): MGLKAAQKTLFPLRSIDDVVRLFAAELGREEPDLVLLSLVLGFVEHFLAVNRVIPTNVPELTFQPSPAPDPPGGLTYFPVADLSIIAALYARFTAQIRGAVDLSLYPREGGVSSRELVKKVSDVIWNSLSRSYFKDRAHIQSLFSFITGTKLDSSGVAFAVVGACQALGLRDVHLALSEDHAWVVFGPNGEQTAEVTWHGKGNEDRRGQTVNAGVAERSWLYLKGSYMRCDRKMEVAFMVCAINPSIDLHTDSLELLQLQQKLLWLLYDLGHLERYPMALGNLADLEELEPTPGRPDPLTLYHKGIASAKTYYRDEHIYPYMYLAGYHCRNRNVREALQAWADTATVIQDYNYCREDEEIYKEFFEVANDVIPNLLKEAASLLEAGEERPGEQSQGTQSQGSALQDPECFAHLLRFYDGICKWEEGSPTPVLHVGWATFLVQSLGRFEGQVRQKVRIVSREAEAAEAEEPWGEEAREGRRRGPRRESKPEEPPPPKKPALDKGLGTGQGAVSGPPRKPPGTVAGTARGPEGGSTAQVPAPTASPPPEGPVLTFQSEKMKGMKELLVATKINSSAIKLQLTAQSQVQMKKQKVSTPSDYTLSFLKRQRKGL

[3] = tested on: K562 cells; settings: read-out: GI50, cell growth inhibitory activity, K562, day 7, cultured 7 days, assigned by order and values
[4] = tested on: MV-4-11 cells; assay: Antitumor activity in MV-4-11 cell subcutaneous transplant model (Experimental Example 3-2); format: in vivo, mice; settings: Exp. Ex. 3-2, oral, 34 days after transplantation
Description: as §1, with “34” for “32”
as §2

[5] = tested on: MLL-AF9-overexpressing AML-like cells (MA9 cells); assay: Differentiation-inducing activity in MLL-AF9-overexpressing AML-like cells (flow cytometry of Gr-1 and cKit); format: cell-based, mouse; settings: 7 days, 5 or 20 nM (Ex. 25, 27), 150 or 300 nM (Ex. 26), 50 or 100 nM (Ex. 22)
Description: The human MLL-AF9 fusion gene was introduced into cKit-positive mononuclear cells isolated from the myeloid of C57BL6 mouse, by retrovirus infection. MLL-AF9-overexpressing AML-like cells (MA9 cells) that acquired abnormal growth ability were established by liquid-culturing the cells after virus infection for a long period of time. Serum-free medium (GlutaMax, P/S, Stem Pro-34 medium containing 10 ng/ml mIL-3, ng/mL mSCF and 10 ng/mL human Oncostatin M) was used as a culture medium.
For the control group, DMSO was added thereto at a final concentration of 0.1% (2 μL/well) (day 0). After culturing for 7 days (day 7), the cells were collected, and blocked with 5% FBS/PBS containing 10% Mouse BD Fc Block (BD) for 10 minutes at room temperature, and then any of various antibodies (Gr-1-FITC or CD117 (cKit)-APC: Biolegend) was added thereto at a final concentration of 0.4 μg/sample, and the mixture was reacted on ice for 30 minutes. Then, dead cell staining dye DAPI (0.2 mg/mL) was added thereto at so as to be […], and the reaction was carried out on ice for additional 2 minutes under shading. Then, the expression level of each surface antigen of the cells was measured by NovoCyte flow cytometer (LMS). The obtained data were analyzed by FlowJo software (Becton Dickinson), and the rate of each surface antigen-expressing cells in the living cells excluding dead cells was graphed.

[6] = tested on: K562 cells; assay: cells; settings: Homo sapiens, K562, 168 h, read-out: GI50, cell growth inhibitory activity, K562, day 7
[7] = tested on: MV-4-11 cells; assay: cells; settings: Homo sapiens, MV4-11, 168 h, read-out: GI50, cell growth inhibitory activity, MV-4-11, day 7
[8] = tested on: OCI-AML3 cells; assay: cells; settings: Homo sapiens, OCI-AML-3, 168 h, read-out: GI50 (nM) Day 7
[9] = tested on: MV-4-11 cells; assay: Cell growth inhibitory activity, MV-4-11 cells (Experimental Example 7, 96-well); format: cell-based; settings: Homo sapiens, MV4-11, 168 h, day 7, Sigmoid Emax model
Description: (§3) A solution of each concentration (MV-4-11 and MOLM-13: common ratio of 3, 9 concentrations from the final concentration of 1 μM, K562: common ratio of 3, 9 concentrations from the final concentration of 10 μM) of a drug (the compound of Example 131) or a growth medium containing 0.2% DMSO was added to each well at 50 μL/well, and the cells were cultured for additional 7 days.

[10] = tested on: MOLM-13 cells; assay: Cell growth inhibitory activity, MOLM-13 cells (Experimental Example 7, 96-well); format: cell-based; settings: Homo sapiens, 168 h, day 7, Sigmoid Emax model
Description: as §3

[11] = tested on: K562 cells; assay: Cell growth inhibitory activity, K562 cells (Experimental Example 7, 96-well); format: cell-based; settings: Homo sapiens, 168 h, day 7, linear regression
Description: as §3

[12] = tested on: MV-4-11 cells; settings: read-out: GI50, cell growth inhibitory activity, MV-4-11, day 7, cultured 7 days, assigned by order and values, Hydrochloride

Compound: COc1cc(-c2ccc(CN[C@H]3C[C@@H](O)[C@@H](N(C)c4ncnc5sc(CC(F)(F)F)cc45)C3)cc2)cnc1OC.Cl [Example 67, (1R,2S,4R)-4-({[4-(5,6-dimethoxypyridin-3-yl)phenyl]methyl}amino)-2-{methyl[6-(2,2,2-trifluoroethyl)thieno[2,3-d]pyrimidin-4-yl]amino}cyclopentan-1-ol hydrochloride]
Estimated tumor volume (test end date) Mean ± S.E. ([1]; qdx16, 25 mg/kg/day): 896 ± 56
Estimated tumor volume (test end date) Mean ± S.E. ([1]; qdx16, 50 mg/kg/day): 381 ± 59
Estimated tumor volume (test end date) Mean ± S.E. ([1]; qdx16, 100 mg/kg/day): 0 ± 0
pIC50 [2]: 8.68

Compound: COc1cc(-c2ccc(CN[C@H]3C[C@@H](O)[C@@H](N(C)c4ncnc5sc(CC(F)(F)F)cc45)C3)cc2)cnc1C.Cl [Example 60, (1R,2S,4R)-4-({[4-(5-methoxy-6-methylpyridin-3-yl)phenyl]methyl}amino)-2-{methyl[6-(2,2,2-trifluoroethyl)thieno[2,3-d]pyrimidin-4-yl]amino}cyclopentan-1-ol hydrochloride]
Estimated tumor volume (test end date) Mean ± S.E. ([1]; qdx16, 25 mg/kg/day): 558 ± 79
Estimated tumor volume (test end date) Mean ± S.E. ([1]; qdx16, 50 mg/kg/day): 25 ± 11
Estimated tumor volume (test end date) Mean ± S.E. ([1]; qdx16, 100 mg/kg/day): 0 ± 0
IC50 ([2]; cell free IC50 (nM)): 2.4 nM

GI50 [3]: > 5000 nM
pIC50 [2]: 8.18
Compound: COc1nc(N(C)C2CC(NCC3CCC(c4cc(OC)c(OC)nn4)CC3)CC2O)c2cc(CC(F)(F)F)sc2n1 (single isomer, unassigned) [Example 128B, Hydrochloride]

Compound: COc1cc(-c2ccc(CN[C@H]3C[C@@H](O)[C@@H](N(C)c4ncnc5sc(CC(F)(F)F)cc45)C3)cc2)nnc1OC [Example 25, (1R,2S,4R)-4-({[4-(5,6-dimethoxypyridazin-3-yl)phenyl]methyl}amino)-2-{methyl[6-(2,2,2-trifluoroethyl)thieno[2,3-d]pyrimidin-4-yl]amino}cyclopentan-1-ol Hydrochloride]
Estimated tumor volume (test end date) Mean ± S.E. ([4]; qdx18, 25 mg/kg/day): 250 ± 38
Estimated tumor volume (test end date) Mean ± S.E. ([4]; qdx18, 50 mg/kg/day): 0 ± 0
Estimated tumor volume (test end date) Mean ± S.E. ([4]; qdx18, 100 mg/kg/day): 0 ± 0
rate of the myeloid cell differentiation antigen Gr-1-expressing cells in living cells ([5]; versus control group (FIG. 10)): increased the rate of Gr-1-positive cells
rate of the cKit-expressing cells in living cells ([5]; versus control group (FIG. 11)): reduced the rate of cKit-positive cells

Compound: COc1nc(N(C)[C@H]2C[C@@H](NCc3ccc(-c4cc(OC)c(OC(F)F)nn4)cc3)C[C@H]2O)c2cc(CC(F)(F)F)sc2n1 [Example 119, (1R,2S,4R)-4-[({4-[6-(difluoromethoxy)-5-methoxypyridazin-3-yl]phenyl}methy)amino]-2-{[2-methoxy-6-(2,2,2-trifluoroethyl)thieno[2,3-d]pyrimidin-4-yl](methyl)amino}cyclopentan-1-ol hydrochloride]
GI50 [6]: 859 nM
GI50 [7]: 15.7 nM
GI50 [8]: 33 nM
pIC50 [2]: 9.15

Compound: COc1cc(-c2ccc(CN[C@H]3C[C@@H](O)[C@@H](N(C)c4ncnc5sc(CC(F)(F)F)cc45)C3)cc2)nnc1OC [Example 131, (1R,2S,4R)-4-({[4-(5,6-dimethoxypyridazin-3-yl)phenyl]methyl}amino)-2-{methyl[6-(2,2,2-trifluoroethyl)thieno[2,3-d]pyrimidin-4-yl]amino}cyclopentan-1-ol Succinate]
GI50 [9]: 1.97 nM
GI50 [10]: 10.1 nM
GI50 [11]: 9110 nM

GI50 [12]: 728 nM
GI50 [6]: > 5000 nM
pIC50 [2]: 7.74
Compound: COc1nc(N(C)C2CC(NCC3CCC(c4cc(OC)c(OC)nn4)CC3)CC2O)c2cc(CC(F)(F)F)sc2n1 (single isomer, unassigned) [Example 128A, Hydrochloride]
